# Experiments:
# [1] = system: A549 human lung cancer cells; assay: MTT assay with cis-platin alone or combined with compound 49; format: cell-based; details: A549, CisPt alone 10.0 μM, 72 h
# Source text: Furthermore, the depletion of GSH has been documented to potentiate the effect of anticancer drugs. Glutathione plays an important role in cisPt detoxification, so depletion of GSH is believed to potentiate the cisPt-induced DNA damage and increase the chemosensitivity of cancer cells to this anticancer drug. Due to the GSH-depleting effect of compound 49, we performed a set of experiments with cis-platin (CisPt) alone or in combination with compound 49 (Figure 9). […] Simultaneous treatments with CisPt (10 μM) and 20 μM of compound 49 caused a 59% reduction in cell growth.
# (§1) The MTT assay is a colorimetric method used to quantify the metabolic activity of cells. MTT (3-(4,5-di-methylthiazol-2-yl)2,5-diphenyltetrazolium bromide) (Sigma-Aldrich Chemie, Steinheim, Germany) is reduced by oxidoreductases in the cytosol of cells to light-absorbing formazan, the presence of which can be measured spectrophotometrically and determines the half-maximal inhibitory concentration (IC50). […]
# (§2) We also incubated the cells with chloroquine at concentrations of 5–20 µM, which was added 1 h before the addition of the test substance, and cisplatin at concentrations of 3–10 µM. […] After 24 h, the absorbance was measured at a wavelength of 540 nm using an automated Cytation™ 3 Cell Imaging Multi-Mode Reader (Biotek, Winooski, VT, USA). […]
# [2] = system: Caco-2; assay: MTT screening assay, Caco-2; format: cell-based; details: Homo sapiens, 72 h incubation
# Source text: (§3) The ability of newly synthesized indole phytoalexins to suppress cell proliferation was screened in vitro on eight cancer cell lines including human colorectal carcinoma (Caco-2 and HCT116), human cervical cancer (HeLa), human breast adenocarcinoma (MCF-7, MDA-MB-231), human alveolar adenocarcinoma (A549) and human leukemic T cell lymphoma (Jurkat), and two non-cancer cell lines (MCF-10A, Cos-7).
# (§4) The cell lines used for this study were Caco-2 (human colorectal adenocarcinoma cell line, American Type Culture Collection, Manassas, VA, USA (ATCC)), HCT116 (human colorectal carcinoma cells European Collection of Authenticated Cell Cultures, Salisbury, UK (ECACC)), HeLa (human cervical tumor cells, ECACC), MCF-7 (human breast tumor cells, ECACC), MDA-MB-231 (human breast tumor cells, ATCC), A549 (human lung carcinoma cells, ATCC), BLM (human melanoma lung metastases, a gift from prof. K. Smetana, Institute of Anatomy, Charles University in Prague), Jurkat (human leukemia cell line, ECACC), Cos-7 (immortalized monkey kidney fibroblasts, ATCC) and MCF-10A (human mammary epithelial cells, ATCC). Caco-2, MCF-7, BLM, Cos-7 and A549 cells were cultured in Dulbecco’s Modified Eagle’s Medium (DMEM) with high glucose and sodium pyruvate (GE Healthcare, Piscataway, NJ, USA); HCT116 lines, HeLa, MDA-MB-231 and Jurkat were cultured in RPMI-1640 medium; and MCF10A cells were cultured in high glucose DMEM/F12 (Dulbecco’s Modified Eagle’s Medium F12). The media were enriched with 10% fetal bovine serum (FBS) and a 1% solution of a mixture of antibiotics and antimycotics 1× HyClone™ (GE Healthcare, Chicago, IL, USA). DMEM/F12 medium was supplemented with epidermal growth factor (EGF) (20 ng/mL final), hydrocortisone (0.5 μg/mL final) and insulin (10 μg/mL final) (Sigma-Aldrich Chemie, Steinheim, Germany). The cells were placed in an incubator at 37 °C with humidified air containing 5% CO2.
# as §1, with “(IC50). A549 cells were seeded in […] culture plates at a density of 5 × 10^3 per well.” for “(IC50).”
# as §2
# [3] = system: HCT116; assay: MTT screening assay, HCT116; format: cell-based; details: Homo sapiens, HCT-116, 72 h incubation
# Source text: as §3, §4
# as §1, with “(IC50). A549 cells were seeded in […] culture plates at a density of 5 × 10^3 per well.” for “(IC50).”
# as §2
# [4] = system: HeLa; assay: MTT screening assay, HeLa; format: cell-based; details: Homo sapiens, 72 h incubation
# Source text: as §3, §4
# as §1, with “(IC50). A549 cells were seeded in […] culture plates at a density of 5 × 10^3 per well.” for “(IC50).”
# as §2
# [5] = system: MCF-7; assay: MTT screening assay, MCF-7; format: cell-based; details: Homo sapiens, MCF7, 72 h incubation
# Source text: as §3, §4
# as §1, with “(IC50). A549 cells were seeded in […] culture plates at a density of 5 × 10^3 per well.” for “(IC50).”
# as §2
# [6] = system: A549; assay: MTT screening assay, A549; format: cell-based; details: Homo sapiens, 72 h incubation
# Source text: as §3, §4
# as §1, with “(IC50). A549 cells were seeded in […] culture plates at a density of 5 × 10^3 per well.” for “(IC50).”
# as §2
# [7] = system: Jurkat; assay: MTT screening assay, Jurkat; format: cell-based; details: Homo sapiens, 72 h incubation
# Source text: as §3, §4
# as §1, with “(IC50). A549 cells were seeded in […] culture plates at a density of 5 × 10^3 per well.” for “(IC50).”
# as §2
# [8] = system: BLM; assay: MTT screening assay, BLM; format: cell-based; details: Homo sapiens, 72 h incubation
# [9] = system: MDA-MB-231; assay: MTT screening assay, MDA-MB-231; format: cell-based; details: Homo sapiens, 72 h incubation
# Source text: as §3, §4
# as §1, with “(IC50). A549 cells were seeded in […] culture plates at a density of 5 × 10^3 per well.” for “(IC50).”
# as §2
# [10] = system: MCF10A; assay: MTT screening assay, MCF10A non-cancer cells; format: cell-based, human; details: Homo sapiens, MCF-10A; 72 h incubation, MTT, non-cancer cells
# Source text: as §3, §4
# (§5) The MTT assay is a colorimetric method used to quantify the metabolic activity of cells. MTT (3-(4,5-di-methylthiazol-2-yl)2,5-diphenyltetrazolium bromide) (Sigma-Aldrich Chemie, Steinheim, Germany) is reduced by oxidoreductases in the cytosol of cells to light-absorbing formazan, the presence of which can be measured spectrophotometrically and determines the half-maximal inhibitory concentration (IC50). A549 cells were seeded in […] culture plates at a density of 5 × 10^3 per well. After 24 h of cultivation, the tested substance 49 was added in concentrations of 10, 50 and 100 µM.
# We also incubated the cells with chloroquine at concentrations of 5–20 µM, which was added 1 h before the addition of the test substance, and cisplatin at concentrations of 3–10 µM. Cisplatin was added 24 h after the addition of 49. After 72 h of incubation, 10 µL of MTT (5 mg/mL) was added to each well. After 4 h, formazan crystals formed in the wells, which were dissolved in 100 uL of 10% SDS (sodium dodecyl sulfate). After 24 h, the absorbance was measured at a wavelength of 540 nm using an automated Cytation™ 3 Cell Imaging Multi-Mode Reader (Biotek, Winooski, VT, USA). These experiments were performed in three independent replicates.
# [11] = system: Cos-7; assay: MTT screening assay, Cos-7 non-cancer cells; format: cell-based, monkey; details: Primates, 72 h incubation
# Source text: as §3, §4
# as §5, with “After 24 h of cultivation, the tested substance 49 was added in concentrations of 10, 50 and 100 µM.” left out
# as §2
Structure (SMILES),reduction of cell growth [1] [%],IC50 [2] [µM],IC50 [3] [µM],IC50 [4] [µM],IC50 [5] [µM],IC50 [6] [µM],IC50 [7] [µM],IC50 [8] [µM],IC50 [9] [µM],IC50 [10] [µM],IC50 [11] [µM],melting point [°C]
"N.N.[Cl][Pt][Cl] [CisPt, cis-platin, reference compound]",39,,,,,,,,,,,
"CC(C)(C)OC(=O)n1cc(CNC(=S)Nc2ccc(NC(=S)NCc3cn(C(=O)OC(C)(C)C)c4ccccc34)cc2)c2ccccc21 [Compound 48, N,N′-(1,4-phenylene)bis{N′-[1-(tert-butoxycarbonyl)indol-3-yl]methyl (thiourea)}]",,51.7 ± 4.1,51.9 ± 4.7,65.3 ± 5.3,77 ± 2.1,73.1 ± 7.3,38.8 ± 2.9,77.1 ± 4.3,46 ± 2.5,67.3 ± 1.9,78.3 ± 2.6,204 to 206
"CC(C)(C)OC(=O)n1cc(CN2C(=O)CSC2=Nc2ccc(N=C3SCC(=O)N3Cc3cn(C(=O)OC(C)(C)C)c4ccccc34)cc2)c2ccccc21 [Compound 51a, 2,2′-[1,4-phenylenebis(azanylylidene)]bis{3-[(1-(tert-butoxycarbonyl)-indol-3-yl)methyl]-1,3-thiazolidin-4-one}]",,> 100,97.7 ± 3.2,> 100,> 100,93.8 ± 1,> 100,> 100,> 100,> 100,> 100,196 to 198
"CO[C@@H]1N(C(=O)OC(C)(C)C)c2ccccc2[C@]12CN=C(Nc1ccc(NC3=NC[C@]4(S3)c3ccccc3N(C(=O)OC(C)(C)C)[C@@H]4OC)cc1)S2 [Compound 52a, N,N′-bis[1-(tert-Butoxycarbonyl)-2-methoxy-spiro{indoline-3,5′-[4′,5′]dihydrothiazol-2′-yl}]benzene-1,4-diamine]",,6.1 ± 2.1,5.8 ± 0.3,6.4 ± 0.7,62.9 ± 3.9,5.95 ± 0.2,6.1 ± 0.7,7.4 ± 2.5,8.3 ± 3.2,10.1 ± 6.2,7.15 ± 0.3,
